Patent publication US7169786B2, “Isoxazoline derivatives as anti-depressants” (priority 2001, dated 2007)

Legend:
hα2C receptor = target: T1, hα2C receptor (Homo sapiens, UniProt P18825); test: Radioligand binding experiment for hα2C receptor ([3H]-raulwolscine); details: membranes of CHO cells expressing human α2C receptor, [3H]raulwolscine 1 nM; for IC50: read-out: hα2C pIC50 (converted)
T1 construct: expressed in transfected cells
T1 sequence (P18825 1-462): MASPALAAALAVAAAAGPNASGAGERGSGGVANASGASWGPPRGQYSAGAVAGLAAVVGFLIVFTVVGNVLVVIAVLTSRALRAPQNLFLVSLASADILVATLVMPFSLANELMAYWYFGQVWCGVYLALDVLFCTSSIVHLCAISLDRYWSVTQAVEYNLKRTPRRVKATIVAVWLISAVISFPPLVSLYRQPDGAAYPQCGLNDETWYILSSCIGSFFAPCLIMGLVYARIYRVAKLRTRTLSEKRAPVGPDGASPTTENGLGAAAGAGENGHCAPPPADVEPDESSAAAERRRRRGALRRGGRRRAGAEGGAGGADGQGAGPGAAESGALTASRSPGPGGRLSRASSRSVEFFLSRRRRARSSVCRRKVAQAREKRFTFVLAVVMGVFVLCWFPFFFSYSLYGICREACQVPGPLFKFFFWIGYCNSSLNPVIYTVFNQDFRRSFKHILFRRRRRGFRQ
Summary of the method: (§1)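 Competition binding with [3H]-rauwolscine on membranes from CHO cells stably expressing human α2A, α2B or α2C receptors (sodium butyrate-induced), in 25 mM glycylglycine pH 8.0; filtration and scintillation counting.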

hα2A receptor = target: T2, hα2A receptor (Homo sapiens, UniProt P08913); test: Radioligand binding experiment for hα2A receptor ([3H]-raulwolscine); details: membranes of CHO cells expressing human α2A receptor, [3H]raulwolscine 1 nM; for IC50: read-out: hα2A pIC50 (converted)
T2 construct: expressed in transfected cells
T2 sequence (P08913 1-465): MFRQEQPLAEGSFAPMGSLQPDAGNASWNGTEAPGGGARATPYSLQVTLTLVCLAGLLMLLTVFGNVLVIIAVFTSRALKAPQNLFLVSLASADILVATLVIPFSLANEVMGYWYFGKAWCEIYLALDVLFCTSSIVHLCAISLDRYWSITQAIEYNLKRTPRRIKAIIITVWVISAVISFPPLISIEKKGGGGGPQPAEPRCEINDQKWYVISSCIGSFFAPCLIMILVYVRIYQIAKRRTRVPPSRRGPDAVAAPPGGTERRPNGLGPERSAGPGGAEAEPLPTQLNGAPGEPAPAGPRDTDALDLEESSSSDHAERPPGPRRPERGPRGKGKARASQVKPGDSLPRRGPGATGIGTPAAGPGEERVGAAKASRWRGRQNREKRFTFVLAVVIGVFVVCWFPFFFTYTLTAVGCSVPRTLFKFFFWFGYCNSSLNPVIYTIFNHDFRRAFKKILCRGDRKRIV
Description: The interaction of the compounds of Formula (I) with hα2-receptors and h5-HT-transporters was assessed in in vitro radioligand binding experiments. In general, a low concentration of a radioligand with a high binding affinity for a particular receptor or transporter is incubated with a sample of a tissue preparation enriched in a particular receptor or transporter or with a preparation of cells expressing cloned human receptors in a buffered medium. During the incubation, the radioligand binds to the receptor or transporter. When equilibrium of binding is reached, the receptor bound radioactivity is separated from the non-bound radioactivity, and the receptor- or transporter-bound activity is counted. The interaction of the test compounds with the receptor is assessed in competition binding experiments. Various concentrations of the test compound are added to the incubation mixture containing the receptor- or transporter preparation and the radioligand. The test compound in proportion to its binding affinity and its concentration inhibits binding of the radioligand. The radioligand used for hα2A, hα2B and hα2C receptor binding was [^3H]-raulwolscine and for the h5-HT transporter was [^3H]paroxetine.
CHO cells, stabile transfected with human adrenergic-α2A-, -α2B or α2C receptor cDNA, were cultured in Dulbecco's Modified Eagle's Medium (DMEM)/Nutrient mixture Ham's F12 (ratio 1:1)(Gibco, Gent-Belgium) supplemented with 10% heat inactivated fetal calf serum (Life Technologies, Merelbeke-Belgium) and antibiotics (100 IU/ml penicillin G, 100 μg/ml streptomycin sulphate, 110 μg/ml pyruvic acid and 100 μg/ml L-glutamine). One day before collection, cells were induced with 5 mM sodiumbutyrate. Upon 80–90% of confluence, cells were scraped in phosphate buffered saline without Ca^2+ and Mg^2+ and collected by centrifugation at 1500×g for 10 min. The cells were homogenised in Tris-HCl 50 mM using an Ultraturrax homogenizer and centrifuged for 10 min at 23,500×g. The pellet was washed once by resuspension and rehomogenization and the final pellet was resuspended in Tris-HCl, divided in 1 ml aliquots and stored at −70° C.
Membranes were thawed and re-homogenized in incubation buffer (glycylglycine 25 mM, pH 8.0). […] Filters were rinsed extensively with ice-cold rinsing buffer (Tris-HCl 50 mM pH 7.4). Filter-bound radioactivity was determined by scintillation counting in a Topcount (Packard, Meriden, Conn.) and results were expressed as counts per minute (cpm). Non-specific binding was determined in the presence of 1 μM oxymetazoline for hα2A- and hα2B receptors and 1 μM spiroxatrine for hα2C receptors.
Data from assays in the presence of compound were calculated as a percentage of total binding measured in the absence of test compound. Inhibition curves, plotting percent of total binding versus the log value of the concentration of the test compound, were automatically generated, and sigmoidal inhibition curves were fitted using non-linear regression. The pIC50 values of test compounds were derived from individual curves.

h5-HT transporter = target: T3, h5-HT transporter (Homo sapiens, UniProt P31645); test: Radioligand binding experiment for 5-HT transporter ([3H]paroxetine, human platelet membranes); details: human platelet membranes, [3H]paroxetine 0.5 nM; for IC50: read-out: 5HTT pIC50 (converted)
T3 construct: Human platelet membranes (Oceanix Biosciences Corporation, Hanover, Md., USA) were thawed; tissue Oceanix Biosciences Corporation, Hanover, Md., USA; host or cells: human platelet membranes
T3 sequence (P31645 whole entry): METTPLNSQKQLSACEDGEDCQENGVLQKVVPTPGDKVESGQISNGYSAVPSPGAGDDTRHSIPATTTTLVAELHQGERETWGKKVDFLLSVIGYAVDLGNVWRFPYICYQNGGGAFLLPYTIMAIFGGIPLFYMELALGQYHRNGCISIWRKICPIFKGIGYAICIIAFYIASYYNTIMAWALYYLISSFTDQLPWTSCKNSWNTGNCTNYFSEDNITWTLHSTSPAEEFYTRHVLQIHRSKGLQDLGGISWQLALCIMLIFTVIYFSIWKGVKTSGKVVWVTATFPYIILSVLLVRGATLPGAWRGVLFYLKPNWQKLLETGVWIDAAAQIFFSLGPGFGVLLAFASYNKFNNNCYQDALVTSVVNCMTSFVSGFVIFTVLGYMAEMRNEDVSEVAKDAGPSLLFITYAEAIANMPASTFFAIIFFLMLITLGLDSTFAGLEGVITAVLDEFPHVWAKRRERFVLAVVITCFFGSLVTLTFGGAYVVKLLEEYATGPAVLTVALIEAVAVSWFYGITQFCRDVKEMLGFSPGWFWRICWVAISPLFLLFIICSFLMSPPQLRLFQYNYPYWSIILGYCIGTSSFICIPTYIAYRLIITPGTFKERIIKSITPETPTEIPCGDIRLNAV
Summary of the method: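 Competition binding of [^3H]paroxetine to human platelet membranes in Tris-HCl 50 mM, 120 mM NaCl, 5 mM KCl; filter-bound radioactivity counted.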

hα2B receptor = target: T4, hα2B receptor (Homo sapiens, UniProt P18089); test: Radioligand binding experiment for hα2B receptor ([3H]-raulwolscine); details: membranes of CHO cells expressing human α2B receptor, [3H]raulwolscine 1 nM; for IC50: read-out: hα2B pIC50 (converted)
T4 construct: expressed in transfected cells
T4 sequence (P18089 1-450): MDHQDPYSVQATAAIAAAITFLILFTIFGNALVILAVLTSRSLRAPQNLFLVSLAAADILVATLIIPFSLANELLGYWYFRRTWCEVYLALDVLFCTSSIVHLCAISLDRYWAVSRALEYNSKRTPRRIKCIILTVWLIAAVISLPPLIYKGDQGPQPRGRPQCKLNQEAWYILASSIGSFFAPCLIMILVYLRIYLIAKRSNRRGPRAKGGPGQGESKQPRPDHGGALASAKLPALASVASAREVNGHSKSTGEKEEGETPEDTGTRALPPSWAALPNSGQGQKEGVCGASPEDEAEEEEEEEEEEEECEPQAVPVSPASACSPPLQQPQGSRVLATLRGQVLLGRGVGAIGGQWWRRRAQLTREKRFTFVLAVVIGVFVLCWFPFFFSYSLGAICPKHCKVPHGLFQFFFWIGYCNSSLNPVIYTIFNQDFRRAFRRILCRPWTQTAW
Summary of the method: as §1

Structure (SMILES) | hα2C pIC50 (hα2C receptor) | hα2A pIC50 (hα2A receptor) | 5HTT pIC50 (h5-HT transporter) | hα2B pIC50 (hα2B receptor) | IC50 (hα2C receptor) [nM] | IC50 (hα2A receptor) [nM] | IC50 (h5-HT transporter) [nM] | IC50 (hα2B receptor) [nM]
COc1cc2c(cc1OC(C)=O)C1=NOC(CN3CCN(CC(C)=Cc4ccccc4)CC3)C1CO2 (stereo not drawn) [Compound 257] | 8.65 | 7.52 | 7.46 | 8.37 | – | – | – | –
COc1cc2c(cc1OC)C1=NOC(CN3CCN(C(C)/C=C/c4ccccc4)CC3)C1CO2 (single isomer, unassigned) [Compound 316] | – | – | – | – | 120 | 10.5 | 407 | 174
COc1cc2c(cc1OC)C1=NOC(CN3CCN(CC(C)Oc4cccc(F)c4)CC3)C1CO2 (stereo not drawn) [Compound 27] | – | – | – | – | 1.55 | 4.07 | 18.2 | 6.03
COc1cc2c(cc1OC)C1=NOC(CN(C)C3CCN(Cc4ccc5ccccc5c4)CC3)C1CO2 (racemic) [Compound 281] | 7.31 | 7.05 | 7.25 | 7.19 | – | – | – | –
COc1cc2c(cc1O)OCC1C2=NOC1CN1CCN(C/C(C)=C/c2ccccc2)CC1 (stereo not drawn) [Compound 3] | – | – | – | – | 1.86 | 2.34 | 16.2 | 2.57
COc1cc2c(cc1OC)C1=NOC(CN3CCN(Cc4cccc(F)c4)CC3)C1CO2 (stereo not drawn) [Compound 285] | – | – | – | – | 363 | 603 | 257 | 575
COc1cc2c(cc1OC)C1=NOC(CN3CCN(CC=Cc4cccc(C)c4)CC3)C1CO2 (stereo not drawn) [Compound 110] | – | – | – | – | 34.7 | 69.2 | 30.2 | 112
COc1cc2c(cc1OC)C1=NOC(CN3CCN(CCOc4ccc(F)cc4)CC3)C1CO2 (stereo not drawn) [Compound 48] | – | – | – | – | 4.37 | 13.2 | 126 | 5.75
COc1ccc2c(c1)OCC1C2=NOC1CCN1CCN(Cc2ccc3ccccc3c2)CC1 (stereo not drawn) [Compound 280] | – | – | – | – | 380 | 91.2 | 8.13 | 447
COc1cc2c(cc1OC)C1=NOC(CN3CCN(CC=Cc4ccc5c(c4)CCO5)CC3)C1CO2 (stereo not drawn) [Compound 125] | – | – | – | – | 34.7 | 56.2 | 13.5 | 141
COc1cc2c(cc1OC)C1=NOC(CN3CCN(C/C=C/c4ccsc4)CC3)C1CO2 (single isomer, unassigned) [Compound 314] | – | – | – | – | 6.46 | 11.2 | 8.71 | 6.92
COc1cc2c(cc1OC)C1=NOC(CN3CCN(Cc4cc5ccccc5o4)CC3)C1CO2 (stereo not drawn) [Compound 54] | – | – | – | – | 36.3 | 19.1 | 41.7 | 38
COc1cc2c(cc1OC)C1=NOC(CN(C=O)C3CCN(Cc4ccc5ccccc5c4)CC3)C1CO2 (racemic) [Compound 282] | 7.64 | 7.66 | 8.06 | 7.26 | – | – | – | –
COc1cc2c(cc1OC)C1=NOC(CN3CCN(Cc4ccc5cc(F)ccc5c4)CC3)C1CO2 (stereo not drawn) [Compound 76] | – | – | – | – | 25.1 | 72.4 | 1.58 | 89.1
CCC(=Cc1ccccc1)CN1CCN(CC2ON=C3c4cc(OC)c(OC)cc4OCC32)CC1 (stereo not drawn) [Compound 154] | – | – | – | – | 87.1 | 53.7 | 89.1 | 40.7
COc1cc2c(cc1OC)C1=NOC(CN3CCN(Cc4ccc5ccccc5n4)CC3)C1CO2 (stereo not drawn) [Compound 45] | – | – | – | – | 43.7 | 57.5 | 69.2 | 70.8
C(=Cc1ccccc1)CN1CCN(CC2ON=C3c4cc5c(cc4OCC32)OCO5)CC1 (stereo not drawn) [Compound 278] | – | – | – | – | 6.92 | 3.24 | 245 | 7.24
CC(=O)Oc1ccc2c(c1)OCC1C2=NOC1CN1CCN(CC=Cc2ccccc2)CC1 (stereo not drawn) [Compound 233] | 7.94 | 8.33 | 7.36 | 8.20 | – | – | – | –
COc1cc2c(cc1Cl)C1=NOC(CN3CCN(CC(C)=Cc4ccccc4)CC3)C1CO2 (stereo not drawn) [Compound 246] | 7.86 | 7.55 | 7.50 | 7.90 | – | – | – | –
COCCOCOc1ccc2c(c1)OCC1C2=NOC1CN1CCN(Cc2ccc3ccccc3c2)CC1 (stereo not drawn) [Compound 267] | – | – | – | – | 2.82 | 3.24 | 5.01 | 12.6
COc1cc2c(cc1OC)C1=NOC(CN3CCN(Cc4cccc(Cl)c4)CC3)C1CO2 (stereo not drawn) [Compound 14] | – | – | – | – | 263 | 427 | 363 | 646
c1ccc2cc(CN3CCN(CC4ON=C5c6cc7c(cc6OCC54)OCO7)CC3)ccc2c1 (stereo not drawn) [Compound 277] | – | – | – | – | 17 | 2.45 | 107 | 7.94
COc1cc2c(cc1OC)C1=NOC(CN3CCN(C/C=C/C=C/c4ccccc4)CC3)C1CO2 (single isomer, unassigned) [Compound 127] | – | – | – | – | 25.7 | 141 | 63.1 | 123
c1ccc2cc(CN3CCN(CC4ON=C5c6ccc(OC7CCOC7)cc6OCC54)CC3)ccc2c1 (stereo not drawn) [Compound 271] | – | – | – | – | 42.7 | 3.89 | 2.95 | 13.8
